The source of these data is publication PMC10179701, “Towards Protection of Nucleic Acids from Herbicide Attack: Self-Assembly of Betaines Based on Pillar[5]arene with Glyphosate and DNA” (International Journal of Molecular Sciences, 2023).

Where “and” joins values, the source holds several entries; their conditions need not be identical. Equal entries are not always repeated.

The nature of data set [1]: Dynamic light scattering of macrocycle aggregates in water. It counts as physicochemical. Particulars: H2O, 298 K. The method, then:
The next stage of the work was the study of aggregation properties of both previously synthesized ester derivatives of amino acids 1 and 2, and macrocyclic betaine derivatives 3 and 4 by dynamic light scattering (DLS). The study was carried out in water in the 1 × 10^–6–1 × 10^–4 M concentration range (Figures S11–S22). The size of associates increases with decreasing macrocycle 1 concentration in solution (Table 1). A different pattern is observed for betaine derivative 3. Thus, the particles become coarser, and the polydispersity index (PDI) of the systems increased with an increase in compound 3 concentration, which is probably due to the formation of β-sheets by oligopeptide substituents. The presence of two oppositely charged fragments in one substituent leads to the fact that compound 3 becomes similar to surfactant molecules in terms of its aggregation properties.

Data set [2] can be described thus: Dynamic light scattering of (macrocycle-DNA)-GIS associates in Tris-HCl buffer. It counts as physicochemical. Particulars: CPA 3 × 10^–6 M, CDNA 2.5 × 10^–7 M, CGIS 3 × 10^–6 M. An excerpt:
The obtained (macrocycle-DNA)-GIS associates were also studied by DLS in Tris-HCl buffer solution. The concentration of each component of the mixture was the same as in the experiments performed by UV-Vis spectroscopy (CPA = 3 × 10^–6 M, CDNA = 2.5 × 10^–7 M, CGIS = 3 × 10^–6 M). The formation of the stable aggregates (d = 183 ± 5 nm, PDI = 0.19, and ζ = –22.2 mV) was found only for the system based on macrocycle 2 with phenylalanine ester fragments (Figure S33). […] This, apparently, leads to the formation of stable aggregates in the case of the three-component (macrocycle-DNA)-GIS systems. The associate’s formation for three-component (2–DNA)–GIS system was additionally confirmed by TEM (Figure 8). It was shown that spherical nanosized particles with sizes close to those determined by DLS are formed.

Data set [3] is described as follows: Transmission electron microscopy of aggregates. It counts as physicochemical. Particulars: 1 × 10^−4 M in water. The text has this: The nanosized aggregates formed by macrocycle 2 were studied by transmission electron microscopy (TEM). The formation of the spherical nanosized particles with sizes close to those determined by DLS was confirmed.
The subject of data set [4] is A549 cells. The data set is described as follows: MTT test, A549 cells. The method, then: (§1) The next stage of this work was the study of pillar[5]arenes 1–4 ability to inhibit the viability and proliferative activity of embryonic lung epithelial (LEC) and human lung adenocarcinoma (A549) cells using the MTT test.
(§2) Further, the ability of GIS to inhibit the viability and proliferative activity of LEC and A549 cells was studied by the MTT test. […] The average inhibitory concentration (IC50) was calculated for GIS (Table 3). […]
(§3) 1.6. Cytotoxicity of pillar[5]arenes 1–4, GIS and their mixtures on A549 and LEC Cell Lines […]
(§4) activity of LEC cells and A549 cells was investigated using the MTT test according to [2]. A549 – human alveolar adenocarcinoma cell line (ATCC, Rockville, Maryland, USA) and cow embryo lung epithelial (LEC) cells (Animal Cell Culture Collection of Russian Academy of Agricultural Science, Kazan, Russia) were cultured in DMEM (GIBCO, Waltham, MA, USA) medium supplemented with 10% serum and 100 units/mL of penicillin (PanEco, Moscow, Russia) and streptomycin (PanEco, Moscow, Russia) in a humidified atmosphere with 5% CO2 at 37 °C. Cells were seeded in 96‐well plates at a concentration of 10^4 cells/well. After 24 h of cultivation, the medium was removed from the wells and replaced with a fresh one with the addition of the test substances. The volume of the culture medium in the wells was 100
(§5) μL. After 24 h incubation of cells in the presence of substances, the medium in the wells was replaced with a fresh one containing MTT reagent at a final concentration of 0.5 mg/mL. The cells were incubated with MTT for 4 h at 37 °C in an atmosphere of 5% CO2. Then, the medium was aspirated from the wells and 100 μL of dimethyl sulfoxide was added. Probes were incubated at 37 °C for 15 min in the dark for the formazan crystals to dissolve. The optical density of the formazan solution in the wells was measured using a plate reader (BioRad xMarkTM Microplate Spectrophotometer, USA) at a wavelength of 570 nm.
(§6) Three series of experiments were carried out with at least 8 replications for each variant in the series. […]
On the technique in general: Tetrazolium dyes change colour on reduction, which living cells bring about.

Data set [5] concerns LEC cells. The data set is described as follows: MTT test, LEC cells. The procedure:
as §1, §2, §3, §4, §5, §6

Data set [6] deals with A549 cells. The data set is described as follows: Apoptosis induction by flow cytometry (DiOC6/PI), A549 cells. Format: cell-based, human. Particulars: A549, 25 μg/mL, 24 h. The procedure: (§7) The cytotoxic effect of pillar[5]arene 2 containing ester fragments of phenylalanine is probably due to the stable aggregates’ formation (Table 1). […] The agent concentration of 25 μg/mL was chosen for the experiment. […] The apoptosis-inducing effect of compound 2 on A549 and LEC cells turned out approximately the same. […]
(§8) buffer solution. The UV spectra of the solutions were then recorded. The stability constant of complex was calculated by Bindfit. Three independent experiments were carried out for each series. […]
(§9) volume of 3 mL with Tris‐HCl buffer solution. The UV spectra of the solutions were then recorded. The stability constant of each complex was calculated by Bindfit. Three independent experiments were carried […]
(§10) stability constant of complex was calculated by Bindfit. Three independent experiments were carried out […]
(§11) humidified atmosphere with 5% CO2 at 37 °C. […]
(§12) fresh one with the addition of the test substances.
(§13) Then, the medium was aspirated from the wells and 100 μL of dimethyl sulfoxide was added. […]
(§14) the formazan crystals to dissolve.
(§15) BD FACSCanto II flow cytometer. […]
(§16) humidified atmosphere with 5% CO2. […]
(§17) substances. […] After 24 h of incubation cells were […]
(In general: In flow cytometry, cells or beads pass a laser one at a time.)

Data set [7] concerns LEC cells. The data set is described as follows: Apoptosis induction by flow cytometry (DiOC6/PI), LEC cells. Format: cell-based, cow. Particulars: 25 μg/mL, 24 h. The method, then: as §7, §8, §9, §10, §11, §12, §13, §14, §15, §16, §17
In data set [8] the test system is A549 cells. The data set is described as follows: MTT assay, combined action of macrocycles with GIS on A549 cells. Format: cell-based, human. Particulars: A549, pillararene 1 × 10^–5 M with GIS 3.47 × 10^–2 M. The method, then:
The ability to inhibit the viability and proliferative activity of A549 cells of macrocycles 1–4 in the presence of GIS was studied using the MTT assay. […] The developed approach opens up the possibility of creating pillar[5]arene-based herbicide antidotes. […]
as §12
Then, the medium was aspirated from the wells
and 100 μL of dimethyl sulfoxide was added.
the formazan crystals to dissolve. […]
as §17

In the case of `CCOC(=O)[C@H](Cc1ccccc1)NC(=O)C[N+](C)(C)CCCNC(=O)COc1cc2c(OCC(=O)NCCC[N+](C)(C)CC(=O)N[C@@H](Cc3ccccc3)C(=O)OCC)cc1Cc1cc(OCC(=O)NCCC[N+](C)(C)CC(=O)N[C@@H](Cc3ccccc3)C(=O)OCC)c(cc1OCC(=O)NCCC[N+](C)(C)CC(=O)N[C@@H](Cc1ccccc1)C(=O)OCC)Cc1cc(OCC(=O)NCCC[N+](C)(C)CC(=O)N[C@@H](Cc3ccccc3)C(=O)OCC)c(cc1OCC(=O)NCCC[N+](C)(C)CC(=O)N[C@@H](Cc1ccccc1)C(=O)OCC)Cc1cc(OCC(=O)NCCC[N+](C)(C)CC(=O)N[C@@H](Cc3ccccc3)C(=O)OCC)c(cc1OCC(=O)NCCC[N+](C)(C)CC(=O)N[C@@H](Cc1ccccc1)C(=O)OCC)Cc1cc(OCC(=O)NCCC[N+](C)(C)CC(=O)N[C@@H](Cc3ccccc3)C(=O)OCC)c(cc1OCC(=O)NCCC[N+](C)(C)CC(=O)N[C@@H](Cc1ccccc1)C(=O)OCC)C2.[Br-].[Br-].[Br-].[Br-].[Br-].[Br-].[Br-].[Br-].[Br-].[Br-]` [Compound 2], the “polydispersity index (PDI)” value in data set [1] (1 × 10^–4 M) was determined as 0.24; in data set [1] (1 × 10^–5 M) it was 0.21; in data set [1] (1 × 10^–6 M), 0.28. The “size of aggregates d” value in data set [1] (1 × 10^–4 M) is 179 nm and 179 ± 8 nm; in data set [1] (1 × 10^–5 M), 157 ± 2 nm; in data set [1] (1 × 10^–6 M), 144 nm and 144 ± 7 nm. In addition, the “zeta potential ζ” value in data set [1] (1 × 10^–4 M) was “+15.9 mV”; in data set [1] (1 × 10^–5 M), “+31.6 mV”; in data set [1] (1 × 10^–6 M), “+12.5 mV”. Also, the “PDI of three-component (macrocycle-DNA)-GIS system” value in data set [2] is listed as 0.19. The “size of aggregates d of three-component (macrocycle-DNA)-GIS system” value in data set [2] stood at 183 ± 5 nm. The “zeta potential ζ of three-component (macrocycle-DNA)-GIS system” value in data set [2] was “–22.2 mV”. Besides, the “average diameter of particles (TEM)” value in data set [3] was 50 nm. The “concentration at which viability was reduced” value in the data set on A549 cells [4] (A549) and with LEC cells [5] was at least 5 µg/mL throughout. Further, the IC50 (commonly the concentration that inhibits the measured activity by half) in the data set on A549 cells [4] (A549, MTT, 24 h) was 29.67 mg/L; with LEC cells [5] (MTT, 24 h) it was 28.16 mg/L. Moreover, the “proportion of living cells (Live, percentage of stained cells)” value in the data set on A549 cells [6] is 74.8%; in the data set with LEC cells [7], 72.7%. Moreover, the “change of toxicity on combined action with GIS” value in the data set with A549 cells [8] is on record as “increase in toxicity”.
